In US4933497A, “Preparation of hydroxybenzaldehydes by hydrocarbonylation of halophenols” (Rhone-Poulenc Chimie, priority 1988, dated 1990):

Assays:
[1] = in water; cited from earlier work
[2] = in water (generally at 25° C.); cited from earlier work
[3] = water

Compound	pKa of the phosphine [1]	pKa of the halophenol [3]	other results
c1ccc(P(c2ccccc2)c2ccccc2)cc1 [triphenylphosphine, reference compound]	2.74	–	–
c1ccc(CP(Cc2ccccc2)Cc2ccccc2)cc1 [tribenzylphosphine]	6.0	–	–
CCP(CC)CC [triethylphosphine]	8.69	–	–
CN(C)c1ccncc1 [4-dimethylaminopyridine]	–	–	pKa of the conjugate acid of the amine [2]: 9.55
COc1cc(Br)ccc1O [4-bromo-2-methoxyphenol]	–	9.5	–
Oc1ccccc1Br [2-bromophenol]	–	8.55	–
C1CCC(P(C2CCCCC2)C2CCCCC2)CC1 [tricyclohexylphosphine]	9.7	–	–
CCOc1cc(Br)ccc1O [4-bromo-2-ethoxyphenol]	–	~9.5	–
